Key:
[1] = system: chick chorioallantoic membrane (CAM); experiment: Chick chorioallantoic membrane (CAM) model of in vivo angiogenesis; conditions: 100 nM PD173074 with 250 μg/mL pAdv ECM bioscaffold in fibrin scaffold
Experimental: FIGS. 14A-14D. Effect of ECM bioscaffolds on angiogenesis in vivo. FIG. 14A) Representative bright field images of scaffolds before (Time 0) and after (72 hr) incubation on the chorioallantoic membrane (CAM) of the chick embryo. […] There was no appreciable angiogenic response detected around scaffolds loaded with digestion buffer (1% (w/v) pepsin in 0.1 N HCl) or DMSO. Addition of the FGF2 inhibitor PD173074 (100 nM) abrogated the angiogenic response to pAdv ECM. […] All scale bars for FIG. 14A=5 mm. FIG. 14B) Representative histological cross-sections of CAM assay scaffolds. The CAM vasculature was visualized using injected tomato lectin-Dylight® 650 (red) and nuclei are labeled with Hoechst dye (blue). A dashed white line denotes the scaffold/CAM interface. […] The maximum tested dose of pAdv ECM (500 μg/mL) inhibited invasion of blood vessels into the scaffold. […] All scale bars in FIG. 14B and FIG. 14C=[…] *Avascular zone comprised of lectin-negative cells. FIG. 14D). […] (*) avascular zone comprised of lectin-negative cells. All scale bars for FIG. 14D=20 μm.
Chick Chorioallantoic Membrane (CAM) Model of In Vivo Angiogenesis. […]

[2] = system: Primary human adventitia-derived endothelial cells; experiment: Endothelial cell branching assay (tube-like structures on GFR-Matrigel); format: cell-based; conditions: 100 nM
Experimental: FIGS. 13A-13C. Effect of ECM bioscaffolds on network formation of tube-like structures in vitro. FIG. 13A—Human adventitia-derived endothelial cells were cultured on growth factor reduced-Matrigel substrates: (A) DMSO, 0.05% (v/v), (B) Digestion buffer (1% (w/v) Pepsin in 0.1 N HCl), (C) pAdv ECM, and (D) pSIS ECM. FGF2 inhibitor PD173074 (100 nM) was added to the culture medium of above treatments shown in parallel wells (E-H). A-H: One representative 10× field is shown, selected from one of three replicates of two independent experiments. All scale bars=50 μm for (A-H). Quantification of the number (FIG. 13B) and total length (FIG. 13C) of tube-like structures from 5×5 stitched fields captured at 10× for non-ECM-supplemented (open bars), pAdv (solid bars) and pSIS (gray bars) ECM-supplemented substrates in the absence and presence of PD173074. Bars represent mean of three assay replicates ±standard deviation. Images and graphs represent data from one of two independent experiments. *Significant from pepsin HCl, p<0.02; #Significant from pAdv ECM-treated cells in the absence of PD173074, p<0.03.
Endothelial Cell Branching Assay. […] Total number and length of tube-like structures were quantified using NIS Elements Software.

SMILES: CCN(CC)CCCCNc1ncc2cc(-c3cc(OC)cc(OC)c3)c(NC(=O)NC(C)(C)C)nc2n1 [PD173074]
- effect on pAdv ECM bioscaffold-induced angiogenesis [1]: completely inhibited
- effect on tube-like formation on non-ECM substrates ([2]; Matrigel alone or pepsin HCl-supplemented substrates): did not affect tube-like formation
- effect on tube-like formation on ECM-supplemented substrates ([2]; pAdv and pSIS ECM bioscaffold-supplemented substrates vs absence of inhibitor): decreased the tube-like formation

From patent publication US12201745B2, “Vascular extracellular matrix hydrogel” (University of Pittsburgh—Of the Commonwealth System of …, priority 2016, dated 2025)
